Test results as given in patent US20220273757A1, “METHODS FOR ADMINISTERING ANGIOTENSIN II BY […] LEVELS” (La Jolla Pharma, LLC, priority 2019, published 2022).
“And” between values parts separate entries of the source, which are not always exact repeats. Identical values can stand only once.

What was measured:
Format in all cases: in vivo, human
serum renin = test: Serum renin concentration at baseline and hour 3 (DRG Renin ELISA), ATHOS-3 patients
Method: (§1) The Angiotensin II for the Treatment of High-Output Shock 3 (ATHOS-3) study has been previously described—NCT02338843. In brief, adults with vasodilatory shock despite volume resuscitation with ≥25 mL/kg and high-dose vasopressors (defined as a norepinephrine equivalent [NED] of greater than 0.2 mcg/kg/min) were randomly assigned 1:1 to receive synthetic human angiotensin II (La Jolla Pharmaceutical Company, San Diego, Calif.) or saline placebo plus standard vasopressors. Randomization was stratified according to MAP at screening and Acute Physiology and Chronic Health Evaluation II (APACHE II) score.
(§2) Study drug infusion started at 20 ng/kg/min and was adjusted during the first 3 hours to increase the MAP to ≥75 mm Hg while keeping other vasopressors constant. Thereafter, the study drug and other vasopressors were adjusted at the discretion of the treating ICU team to maintain a MAP between 65 and 75 mm Hg. At 48 hours, the infusion was discontinued according to a protocol-specified tapering process. However, continuation was allowed for up to 7 days at the discretion of the ICU team.
(§3) Serum concentrations of renin, angiotensin I, and angiotensin II were measured after randomization but prior to administration of the study drug and at 3 hours after initiation of study drug.
Serum renin was measured with the DRG Renin ELISA Kit (DRG Instruments GmbH, Marburg, Germany). The DRG ELISA Kit is a solid-phase enzyme-linked immunosorbent assay based on the sandwich principle. The microtiter wells are coated with a monoclonal (mouse) antibody directed toward a unique antigenic site of the human active renin molecule. An aliquot of patient sample containing endogenous renin is rapidly thawed in a water bath and incubated in the coated well together with assay buffer. After incubation, unbound components are washed off. Finally, enzyme conjugate, a monoclonal anti-renin antibody conjugated with horseradish peroxidase, is added. After incubation, unbound enzyme conjugate is washed off. The amount of bound peroxidase is proportional to the concentration of renin in the sample. Having added the substrate solution, the intensity of color developed is proportional to the concentration of active renin in the patient sample. Personnel who conducted the assays were blinded to the study database and treatment allocation.

angiotensin I = test: Serum angiotensin I level at baseline and hour 3, ATHOS-3 patients; conditions: hour 3; IQR 13.4%-65.1% reduction; placebo 8.1%
Method: as §1, §2, §3

[1] = tested on: patients with catecholamine-resistant vasodilatory shock; test: 28-day mortality / survival in ATHOS-3 by baseline serum renin; conditions: for Hazard Ratio (95% CI), mortality, treatment arm: patients with elevated baseline renin only; for unstratified hazard ratio, 28-day mortality, vs placebo: renin above study population median (high renin), N = 128, 95% CI 0.35-0.88
Method: as §1, §2
(§4) Descriptive statistics with 95% confidence intervals (CIs) were used to summarize data according to treatment group. Differences between treatment groups were identified using the Wilcoxon rank-sum test or analysis of variance for continuous or ordinal variables and the chi-square or Fisher's exact test for discrete variables. Time-to-event data was summarized, including survival, using Kaplan-Meier estimates and compared them by log-rank test. Hazard ratios (HRs) are estimated from a proportional hazards model. A two-sided alpha level of 0.05 was used to test for differences in treatment outcomes without adjustments for multiplicity. Correlation coefficients were calculated for renin versus angiotensin I and the angiotensin I/II ratio. Correlation coefficients were also calculated for renin versus angiotensin I for hour 0 (baseline) and hour 3. For multivariate analyses, covariates that were utilized for study stratification (Model A), covariates that were different between groups defined by P<0.10 (Model B), and statistically significant covariates from Models A and B were included in a multivariate logistic regression (Model C). The dichotomized baseline covariates that were utilized for study stratification were MAP <65 mm Hg and APACHE II score >30.

[2] = tested on: patients with catecholamine-resistant vasodilatory shock; test: Ventilator liberation, RRT liberation and ICU discharge in ATHOS-3 by baseline renin
Method: as §1, §2, §4

[3] = tested on: patients with catecholamine-resistant vasodilatory shock; test: MAP response at hour 3 by baseline renin, ATHOS-3
Method: as §1, §2

patients with severe AKI = test: Renal recovery in patients with severe AKI by serum renin levels, ATHOS-3; conditions: first 7 days
Method: as §1, §2
as §4, with “For multivariate analyses, covariates that were utilized for study stratification (Model A), covariates that were different between groups defined by P<0.10 (Model B), and statistically significant covariates from Models A and B were included in a multivariate logistic regression (Model C). The dichotomized baseline covariates that were utilized for study stratification were MAP <65 mm Hg and APACHE II score >30.” left out

[4] = tested on: patients with catecholamine-resistant vasodilatory shock; test: Change in CV and total SOFA score from baseline to hour 48, ATHOS-3
Method: as §1, §2, §4

[5] = tested on: patients with catecholamine-resistant vasodilatory shock; test: Adverse events, ATHOS-3 patients with elevated baseline renin; conditions: patients with elevated renin concentrations at baseline
Method: Safety was evaluated by assessment of treatment-emergent adverse events, serious adverse events, and adverse event-related drug discontinuations. Data were analyzed with the use of SAS software, version 9.4 (SAS Institute, Cary, N.C.) and R version 3.5.3. (R Foundation).

[6] = renin above study population median, N = 55
[7] = renin above study population median, N = 55, listed as Angiotensin II
[8] = renin below study population median
[9] = renin below study population median, N = 64

Asp-Arg-Val-Tyr-Ile-His-Pro-Phe [angiotensin II]
median reduction in renin concentration (serum renin; 3 hours after initiation of therapy, IQR 37.9%-66.5% reduction, placebo 14.1%): 54.3% | Renin % Change at Hour 3, Mean (SD) (serum renin; N 102): −45.5 (38.59) ^ % | Renin % Change at Hour 3, Median (range) (serum renin; N 102): −54.8 (−91.1-161.0) % | Renin Change at Hour 3, Mean (SD) (serum renin; N 102): −210.3 (307.43) ^ | Renin Change at Hour 3, Median (range) (serum renin; N 102): −99.6 (−1574-496.2) | Hour 3 Renin, Mean (SD) (serum renin; N 103): 231.8 (416.91) ^ | Hour 3 Renin, Median (range) (serum renin; N 103): 85.0 (4.0-2739.8) | median reduction in angiotensin I levels (angiotensin I): 40.8% | HR (95% CI), treatment arm, multivariate ([1]; Table 4A whole cohort, full model): 0.77 (0.54-1.08) | HR (95% CI), treatment arm, multivariate ([1]; Table 4A whole cohort, step-wise model): 0.77 (0.54-1.08) | HR (95% CI), treatment arm, multivariate ([1]; Table 4B population below median renin, full model): 1.08 (0.64-1.82) | HR (95% CI), treatment arm, multivariate ([1]; Table 4B population below median renin, step-wise model): 1.11 (0.66-1.86) | HR (95% CI), treatment arm, multivariate ([1]; Table 4C population above median renin, full model): 0.62 (0.39-0.98) | HR (95% CI), treatment arm, multivariate ([1]; Table 4C population above median renin, step-wise model): 0.62 (0.39-0.98) | HR (95% CI), treatment arm, multivariate ([1]; Table 4D whole cohort with treatment-renin interaction, full model): 1.08 (0.64-1.81) | HR (95% CI), Treatment * Renin >= Population Median interaction ([1]; Table 4D whole cohort, full model): 0.54 (0.27-1.09) | HR (95% CI), treatment arm, multivariate ([1]; Table 4D whole cohort, step-wise model): 0.77 (0.54-1.08) | Day 28 mortality ([1]; baseline renin <Pop Median, N = 73): N = 73, 43.9% | Day 28 mortality ([1]; baseline renin >=Pop Median, N = 64): N = 64, 50.1% | HR, mortality sensitivity analysis ([1]; high renin cut-off 2x ULN): 0.69 | HR, mortality sensitivity analysis ([1]; high renin cut-off 3x ULN): 0.57 | HR, mortality sensitivity analysis ([1]; high renin cut-off 4x ULN): 0.63 | HR, mortality sensitivity analysis ([1]; high renin cut-off ULN): 0.76 | HR (95% CI), survival, vs placebo ([1]; high renin, AKI subset, N = 62): 0.51 (0.26-0.99), 0.0411 | HR (95% CI), survival, vs placebo ([1]; high renin, ARDS subset, N = 41): 0.49 (0.21-1.16), 0.0964 | HR (95% CI), survival, vs placebo ([1]; low renin, AKI subset, N = 32): 0.55 (0.19-1.58), 0.2574 | HR (95% CI), survival, vs placebo ([1]; low renin, ARDS subset, N = 34): 1.38 (0.59-3.26), 0.4583 | HR (95% CI), survival, vs placebo ([1]; low renin, all, N = 127): 1.11 (0.66-1.86), 0.7002 | Hazard Ratio (95% CI), mortality, treatment arm ([1]; Model A): 0.58 (0.36-0.93) | Hazard Ratio (95% CI), mortality, treatment arm ([1]; Model B): 0.62 (0.38-0.99) | 28-day mortality ([1]; patients with renin above the study population median, N = 55, table gives (95% CI)): 50.9% | 28-day mortality ([1]; patients with renin above the study population median, N = 55, table gives (95% CI), listed as Angiotensin II): 51% (39%-65%) | 28-day mortality ([1]; patients with renin below the study population median, N = 64): 45% (34%-58%) | unstratified hazard ratio, 28-day mortality, vs placebo ([1]; all): 0.56 and 0.556 | unstratified hazard ratio, 28-day mortality, vs placebo ([1]; all, listed as LJPC 501): 0.56 (0.35-0.88), 0.0115 | parameter estimate, treatment, Day 28 survival model ([1]; results available data): −0.298 | difference in 28-day mortality vs placebo ([1]; serum renin below the study population median): no statistically significant difference | parameter estimate, treatment, Day 28 survival model ([1]; with multiple imputation of missing serum renin): −0.229 | RRT Liberation by Day 7 (alive and RRT free) ([2]; renin above study population median): 43% | ICU Discharge by Day 28 [2, 6]: 44% | Ventilator Liberation by Day 7 (alive and vent free) [2, 6]: 28% | ICU Discharge by Day 28 [2, 7]: 44% (32%-58%) | Ventilator Liberation by Day 7 (alive and vent free) [2, 7]: 28% (18%-43%) | RRT Liberation by Day 7 (alive and RRT free) ([2]; renin above study population median, listed as Angiotensin II): 43% (25%-66%) | RRT Liberation by Day 7 (alive and RRT free) [2, 8]: 28% (13%-54%) | ventilator and RRT liberation, ICU discharge: difference between treatment groups [2, 8]: no differences | ICU Discharge by Day 28 [2, 9]: 39% (28%-52%) | Ventilator Liberation by Day 7 (alive and vent free) [2, 9]: 27% (18%-40%) | MAP Response at Hour 3 ([3]; baseline renin <Pop Median, 57/73 patients): 57/73 (78.1%) | MAP Response at Hour 3 ([3]; baseline renin >=Pop Median, 39/64 patients): 39/64 (60.9%) | RR (95% CI), likelihood of renal recovery vs placebo (patients with severe AKI; all patients with severe AKI, N = 105): 2.902 (1.293-6.515) | RR (95% CI), likelihood of renal recovery vs placebo (patients with severe AKI; severe AKI, renin above study median, N = 62): 4.112 (1.376-12.29), 0.0061 | RR (95% CI), likelihood of renal recovery vs placebo (patients with severe AKI; severe AKI, renin below study median, N = 32): 2.215 (0.429-11.42), 0.3295 | Hour 48 change from baseline in Total SOFA, Mean (SD) ([4]; elevated renin population, N = 54): 1.35±6.032 | Hour 48 change from baseline in Total SOFA, Mean (SD) ([4]; elevated renin population, N = 54, listed as LJPC-501): N = 54, 1.35 (6.032) | Hour 48 change from baseline in CV SOFA, Mean (SD) ([4]; elevated renin population, N = 55): −1.56±1.793 | Hour 48 change from baseline in CV SOFA, Mean (SD) ([4]; elevated renin population, N = 55, listed as LJPC-501): N = 55, −1.56 (1.793) | Hour 48 change from baseline in Total SOFA, Mean (SD) ([4]; low renin population, N = 62): N = 62, 0.85 (5.524) | Hour 48 change from baseline in CV SOFA, Mean (SD) ([4]; low renin population, N = 64): N = 64, −1.77 (1.716) | change in CV SOFA score compared to placebo ([4]; total ATHOS-3 population, baseline to hour 48): significantly greater | adverse events or serious adverse events vs placebo [5]: no significant difference
